Data reported in patent publication US4118561A, “7-(Substituted)-7H-pyrrolo[3,2-f]quinazoline-1,3-diamines” (priority 1977, dated 1978).
Converted amounts (≈) assume the structure as drawn. Like-named read-outs stand apart in the source and are kept apart here.

Experiments:
mice = assay: Acute toxicity in mice, i.p. single dose; format: in vivo, Charles River COBS CD Strain Albino mice, male
Procedure: (§1) Single doses of 7-(phenylmethyl)-7H-pyrrolo[3,2-f]-quinazoline-1,3-diamine (active moiety) were intraperitoneally administered in 0.5% carboxymethylcellulose at a constant dose volume of 10 ml./kg., to groups of 10 mice/dose level. (Charles River COBS CD Strain Albino mice, male, weight 21.0-25.29.) Daily observations were made on all mice for the duration of experiment (14 days). […] (95% confidence limits of 48.6-93.4) all deaths occurred 4-5 days post-drug-administration.
(§2) These effects lasted up to 6 days in the low dose animals and 14 days in those animals having received the highest dose. All mice alive on day 14 were sacrificed and necropsied.

[1] = Acute toxicity in mice, i.p. single dose; format: in vivo, Charles River COBS CD Strain Albino mice, male; conditions: mouse, in vivo, ip; mice, single dose, 14 days
Procedure: as §1, §2

P. cynomolgi = assay: Activity against P. cynomolgi infections in Rhesus monkeys; format: in vivo, P. cynomolgi (infected Rhesus monkeys); conditions: Plasmodium cynomolgi, in Macaca mulatta, 168 h
N. catarrhalis 8193 = assay: In vitro antibacterial activity (MIC), N. catarrhalis 8193; conditions: 18 h
S. aureus 53-180 = assay: In vitro antibacterial activity (MIC), S. aureus 53-180; conditions: Staphylococcus aureus, 53180, 18 h
[2] = system: lymphocytic leukemia P-388; assay: Activity in mice against lymphocytic leukemia P-388; format: in vivo; conditions: Mus musculus, P388, ip, read-out: T/C
[3] = system: Plasmodium berghei KBG 173; assay: Antimalarial blood schizonticidal test in mice; format: in vivo, Plasmodium berghei (infected ICR/HA Swiss mice); parameters: ΔMST (increase in mean survival time): unit: days; conditions: for ED100 / minimal effective dose: Plasmodium berghei, sc, single dose; for ED100: read-out: Lowest Dose Curing All Mice; for minimal effective dose: read-out: Min. Curing Dose; for Cure/Treat at Min. Curing Dose: at the Min. Curing Dose
Procedure, shortened: (§3)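 ICR/HA Swiss mice (18–22 g) infected i.p. with 4 × 10^7 P. berghei KBG 173-parasitized cells; single subcutaneous dose in peanut oil at 72 h post-infection, graded dosages. Survival followed 60 days; 60-day survivors counted cured, deaths before day 6 counted toxic; mean survival time compared with untreated controls.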

[4] = Antimalarial blood schizonticidal test in mice; format: in vivo, Plasmodium berghei (infected ICR/HA Swiss mice); parameters: ΔMST (increase in mean survival time): unit: days; conditions: mouse, in vivo, sc, single dose, read-out: Highest Non-Lethal Dose
Procedure, shortened: as §3

K. pneumoniae 10031 = assay: In vitro antibacterial activity (MIC), K. pneumoniae 10031; conditions: Klebsiella pneumoniae, 10031, 18 h
Proteus mirabilis 190 = assay: In vivo antibacterial synergism (mouse), Proteus mirabilis 190; parameters: species or system Proteus mirabilis (infected mice, CD-1); conditions: for ED50: Proteus mirabilis, 190, po, 336 h, read-out: PD50 (agent alone); for PD50 SM/Cpd. (compound part): 0 hours, 20160 min
Procedure: (§4) The test agents are weighed, suspended in 0.5% aqueous carboxymethyl cellulose, homogenized (glass tissue grinder) and diluted according to the design of the experiment. Mice (male, 18±1 g., CD-1 strain) are pre-weighed, pooled, infected at random intraperitoneally with a 0.5 ml. standardized suspension (LD95 ±5%) of the bacterial organism in 5% gastric mucin and treated at random with single doses of the test agents either at the time of infection or six hours after infecting. The treated groups consist of ten mice per dosage level. Deaths are recorded daily for 14 days and the PD50 (mice are treated at time of infection) and CD50 (mice are treated six hours after infecting) values are calculated by the method of Reed and Muench [Amer. J. Hyg., 27, 493 (1938)].

S. paratyphi 11737 = assay: In vitro antibacterial activity (MIC), S. paratyphi 11737; format: cell-based; conditions: Salmonella enterica, 18 h
S. aureus Smith = assay: In vitro antibacterial activity (MIC), S. aureus Smith; conditions: Staphylococcus aureus, 18 h
E. coli 9637 = assay: In vitro antibacterial activity (MIC), E. coli 9637; conditions: Escherichia coli, 9637, 18 h
P. vulgaris 6896 = assay: In vitro antibacterial activity (MIC), P. vulgaris 6896; conditions: Proteus vulgaris, 6896, 18 h
bacterial infections = assay: Synergism with sulfamethoxazole against bacterial infections in mice, oral; format: in vivo
Procedure: The invention also provides compounds which will potentiate the antibacterial effects of sulfa drugs.
as §4

[5] = system: strains of P. berghei resistant to chloroquine, sulfones, cycloguanil, and pyrimethamine; assay: Activity against resistant strains of P. berghei in mice; format: in vivo, P. berghei (infected mice)
Excerpt: Activity against strains of P. berghei resistant to chloroquine, sulfones, cycloguanil, and pyrimethamine, is shown by the testing of 7-(phenylmethyl)-7H-pyrrolo[3,2-f]quinazoline-1,3-diamine and 7-[(2,5-dimethylphenyl)methyl]-7H-pyrrolo[3,2-f]quinazoline-1,3-diamine in mice against such resistant strains.

[6] = infected mice, highest dose with no deaths for any reason
[7] = mice, p.o., with SM 1.56 mg. per kg.
[8] = mice, p.o., treated 0 hours after infecting
[9] = Rhesus monkeys, oral, seven days, read-out: CD50 (the source's name)

SMILES	MIC (N. catarrhalis 8193) [µg/mL]	MIC (S. aureus 53-180) [µg/mL]	ED100 ([3]; 1440 h, s.c., 60-day survivors) [mg/kg]	Cure/Treat at Min. Curing Dose ([3]; s.c., 60-day survivors)	MTD [4, 6] [mg/kg]	MIC (K. pneumoniae 10031) [µg/mL]	PD50 SM/Cpd. (compound part) (Proteus mirabilis 190; [7]) [mg. per kg.]	MIC (S. paratyphi 11737) [µg/mL]	MIC (S. aureus Smith) [µg/mL]	MIC (E. coli 9637) [µg/mL]	MIC (P. vulgaris 6896) [µg/mL]	minimal effective dose ([3]; 1440 h, s.c., 60-day survivors) [mg/kg]	ΔMST (increase in mean survival time) ([3]; s.c., dose 2.5 mg. per kg.)	ED50 (Proteus mirabilis 190; [8]) [mg/kg]	synergistic effect with sulfamethoxazole (bacterial infections)	ED50 (P. cynomolgi; [9]) [mg/kg]	ΔMST (increase in mean survival time) ([3]; s.c., dose 5 mg. per kg.)	further results
Nc1nc(N)c2c(ccc3c2ccn3Cc2ccccc2)n1 [Example 2, 7-(Phenylmethyl)-7H-pyrrolo[3,2-f]quinazoline-1,3-diamine]	0.061 (≈ 0.211 µM)	1.95 (≈ 6.74 µM)	80	2/5	160	1.95 (≈ 6.74 µM)	7.78	1.95 (≈ 6.74 µM)	1.95 (≈ 6.74 µM)	1.95 (≈ 6.74 µM)	7.81 (≈ 27 µM)	–	–	–	–	–	–	duration of effects (mice; animals having received the highest dose, i.p.): 14 days; signs observed on day 2 post-drug-administration (mice; day 2, i.p. single dose): rough coats and decreased fecal elimination; duration of effects (mice; low dose animals, i.p.): up to 6 days; necropsy, macroscopic (mice; mice alive on day 14): Macroscopically, the tissues appeared normal; time of deaths post-drug-administration (mice; mice, i.p., single dose): 4 to 5 days; LD50, 95% confidence limits (mice; mice, i.p., single dose, 14 days): 48.6 to 93.4 mg/kg; signs in all mice after i.p. injection (mice; within 1 hour after i.p. injection): decreased spontaneous motor activity, bradypnea, ptosis, and stretching with indrawn sides in all mice; LD50 at 336 h [1]: 54.5 mg/kg; ED50 (P. cynomolgi; po, read-out: CD50): 0.1 mg/kg; response vs control in vivo at 10 mg/kg [2]: 149%; minimal effective dose ([3]; this is the lowest dose tested): 20 mg/kg; ΔMST (increase in mean survival time) ([3]; s.c., dose 20 mg. per kg.): 10.9; ED50 (Proteus mirabilis 190): 22.5 mg/kg
Nc1nc(N)c2c(ccc3c2ccn3Cc2ccc(F)cc2)n1 [Example 5, 7-[(4-fluorophenyl)methyl]-7H-pyrrolo[3,2-f]-quinazoline-1,3-diamine]	0.0038 (≈ 0.0124 µM)	0.122 (≈ 0.397 µM)	20	2/5	80	0.031 (≈ 0.101 µM)	1.56	0.488 (≈ 1.59 µM)	0.244 (≈ 0.794 µM)	0.122 (≈ 0.397 µM)	0.488 (≈ 1.59 µM)	5	7.1	9.8	synergistic effect	–	–	–
N#Cc1cccc(Cn2ccc3c4c(N)nc(N)nc4ccc32)c1 [Example 15, 7-[(3-cyanophenyl)methyl]-7H-pyrrolo[3,2-f]-quinazoline-1,3-diamine]	0.0038 (≈ 0.0121 µM)	0.031 (≈ 0.0986 µM)	10	2/5	40	0.031 (≈ 0.0986 µM)	2.67	0.488 (≈ 1.55 µM)	0.061 (≈ 0.194 µM)	0.122 (≈ 0.388 µM)	0.976 (≈ 3.1 µM)	1.25	–	8.8	synergistic effect	–	–	ΔMST (increase in mean survival time) ([3]; s.c., dose 1.25 mg. per kg.): 9.6
Cc1ccc(C)c(Cn2ccc3c4c(N)nc(N)nc4ccc32)c1 [Example 23, 7-[(2,5-dimethylphenyl)methyl]-7H-pyrrolo[3,2-f]quinazoline-1,3-diamine]	0.244 (≈ 0.769 µM)	0.976 (≈ 3.08 µM)	40	3/5	–	1.95 (≈ 6.14 µM)	–	125 (≈ 394 µM)	3.9 (≈ 12.3 µM)	31.3 (≈ 98.6 µM)	250 (≈ 788 µM)	10	–	–	–	1	7.9	Activity against resistant strains [5]: Activity; response vs control in vivo at 10 mg/kg ([2]; mice, I.P., 10 mg/kg): 142%; MTD ([4]; this is the highest dose tested): 640 mg/kg
COc1ccc(Cn2ccc3c4c(N)nc(N)nc4ccc32)cc1 [Example 34, 7-[(4-methoxyphenyl)methyl]-7H-pyrrolo[3,2-f]quinazoline-1,3-diamine]	0.0152 (≈ 0.0476 µM)	0.244 (≈ 0.764 µM)	20	2/5	160	0.061 (≈ 0.191 µM)	–	0.976 (≈ 3.06 µM)	0.976 (≈ 3.06 µM)	0.488 (≈ 1.53 µM)	0.976 (≈ 3.06 µM)	5	–	–	–	0.316	11.2	–
N#Cc1ccc(-n2ccc3c4c(N)nc(N)nc4ccc32)cc1 [Example 69, 7-(4-Cyanophenyl)-7H-pyrrolo[3,2-f]-quinazoline-1,3-diamine]	0.031 (≈ 0.103 µM)	0.488 (≈ 1.62 µM)	20	3/5	20	0.122 (≈ 0.406 µM)	9.39	31.3 (≈ 104 µM)	0.976 (≈ 3.25 µM)	0.976 (≈ 3.25 µM)	125 (≈ 416 µM)	5	11	> 400	synergistic effect	–	–	PD50 SM/Cpd. (compound part) (Proteus mirabilis 190; mice, p.o., with SM 0.39 mg. per kg.): > 12.5 mg. per kg.; PD50 SM/Cpd. (compound part) (Proteus mirabilis 190; mice, p.o., with SM 0.78 mg. per kg.): > 12.5 mg. per kg.; PD50 SM/Cpd. (compound part) (Proteus mirabilis 190; mice, p.o., with SM 3.11 mg. per kg.): 2.55 mg. per kg.
